# From patent US12329736B2, “Carboxylate ligand modified ferric iron hydroxide compositions for use in the treatment or prevention of iron deficiency associated with liver diseases” (Nemysis Ltd., priority 2020, dated 2025)
# “Also recorded” adds a separate entry of the source.
# Settings: Wistar rats
# Description: 5-6 week old Wistar rats (n=72; 36 female and 36 male) were housed in harmonious social groups (2-3 animals per cage and sex) in a light- and temperature-controlled room with ad libitum access to standard pellet diet and water. Rats were acclimatised for 7 days for male rats and 14 days for female rats, prior to treatment commencement.
# Animals were gavaged for 28 days (n=36; 18 female and 18 male) or 90 days (n=36; 18 female and 18 male). Following necropsy, livers were harvested, flash frozen in liquid nitrogen and stored at −80° C. until further analysis.
# Livers were thawed at room temperature, and a sample of approximately 800 mg was cut out, cleaned from any fat and weighed on a balance accurate to 0.0001 g. Weighed samples were digested in concentrated HNO3 (Nitric acid ≥65%, 84380-2.5L-M, Merck) and H2O2 (Hydrogen peroxide solution, 16911-1L-F, Sigma-Aldrich) at a 5:1 ratio. Samples were digested at room temperature for 24 h and if necessary at 40° C. for another 24 h to allow complete digestion. Following complete digestion samples were diluted 1:4 in UHP water to achieve a final HNO3 concentration of 6-8%. Total elemental analysis for iron was carried out on a Jobin Yvon Horiba Ultima 2C ICP-OES (Instrument SA, Longjumeau, France), equipped with a concentric nebulizer and cyclonic spray chamber. Analysis was by peak profile with a window size of 0.025 nm with 21 increments per profile and an integration time of 0.5 seconds per increment. Analytical line was 259.940 nm. Samples and blanks were analysed with iron standards (0-20 mg/L) prepared in 6-8% HNO3, using a 1000 mg/L Fe ICP solution. Pooled-sample standards (0-20 mg/L) were prepared, using a pool of all final digests, to allow detection of possible matrix effects. Each sample/blank/standard was analysed in triplicates and the average value used for the calculations. The sample induction system (sample tubing, nebuliser and spray chamber) was thoroughly flushed between samples, blanks and standards.
# Statistical analyses were performed in GraphPad Prism 6. One-way ANOVA, followed by Tukey's multiple comparison's test, was used to assess the treatment effect, irrespective of the length of treatment. Two-way ANOVA was used to assess the effects of time (i.e. treatment length), treatment and the time x treatment interactions, followed by Bonferroni's multiple comparisons test. Two-way ANOVA was also used to assess the effect of sex, treatment and the sex x treatment interaction. P values <0.05 were considered significant in all analyses. Data are presented as means±SDs.
smiles,measurement,setting,value
"O=S(=O)([O-])[O-].[Fe+2] [FeSO4, ferrous sulphate]",Accumulation of liver iron over time with repeated oral dosing,"28 days versus 90 days of oral administration, FIG. 1B",iron seems to accumulate over time; also recorded: does accumulate
same,Total iron content in liver samples versus vehicle control group,"daily oral gavage 28 or 90 days, IHAT 28.5 mg iron/kg, FeSO4 20.00 mg iron/kg, FIG. 1A",significantly increased; also recorded: significant difference
